Active and inactive are the calls of the source. The calls are words filed in the database; no cut-off is given here. Where a SMILES comes first, the peptide text is derived from it. Bridges are numbered along the chain shown (N, C = ends).
Assays:
Helicoverpa armigera = assay: Insecticidal activity against Helicoverpa armigera assessed as growth inhibition; type: functional, organism-based
Helicoverpa punctigera = assay: Insecticidal activity against Helicoverpa punctigera assessed as inhibition of development of larvae at 0.825 umol/g after 16 days; type: functional, organism-based
[1] = Hemolytic activity in human RBC; type: ADME, cell-based, Erythrocyte; settings: human red blood cells, read-out: HD50 (the source's name)
[2] = Cytotoxicity against human 8226/DOX40 cells after 72 hrs by fluorometric microculture cytotoxicity assay; type: functional, cell-based
R1 = assay: Cytotoxicity against mouse R1 cells after 72 hrs by fluorometric microculture cytotoxicity assay; type: cell-based; settings: R1, 72 h
[3] = Cytotoxicity against human 8226/LR-5 cells after 72 hrs by fluorometric microculture cytotoxicity assay; type: functional, cell-based
[4] = Cytotoxicity against human CEM/VM1 cells after 72 hrs by fluorometric microculture cytotoxicity assay; type: functional, cell-based; settings: CEM-VM1, 72 h
CCRF-CEM = assay: Cytotoxicity against human CCRF-CEM cells after 72 hrs by fluorometric microculture cytotoxicity assay; type: functional, cell-based
ACHN = assay: Cytotoxicity against human ACHN cells after 72 hrs by fluorometric microculture cytotoxicity assay; type: functional, cell-based
U-937 = assay: Cytotoxicity against human vincristine-resistant U937 cells after 72 hrs by fluorometric microculture cytotoxicity assay; type: functional, cell-based; settings: U-937, 72 h
U-937/GTB = assay: Cytotoxicity against human U937/GTB cells after 72 hrs by fluorometric microculture cytotoxicity assay; type: functional, cell-based
RPMI-8226 = assay: Cytotoxicity against human RPMI8226/S cells after 72 hrs by fluorometric microculture cytotoxicity assay; type: functional, cell-based
[5] = Hemolytic activity in human type A RBC assessed as hemolysis after 1 hr by microtitre plate; type: ADME, cell-based; settings: Erythrocyte
[6] = tested on: Human immunodeficiency virus 1; assay: Antiviral activity against HIV1 infected in human CEM-SS cells assessed as protection against virus-induced cytopathic effect by XTT method; type: functional, organism-based; settings: Human immunodeficiency virus 1, CEM-SS
CEM-SS (Homo sapiens) = assay: Cytotoxicity against human CEM-SS cells
[7] = Hemolytic activity in human type A RBC assessed as concentration required to cause 75% hemolysis after 1 hr by microtitre plate; type: ADME, cell-based; settings: erythrocyte

CC[C@H](C)[C@@H]1NC(=O)[C@@H]2CCCN2C(=O)[C@H](Cc2c[nH]c3ccccc23)NC(=O)[C@H]([C@@H](C)O)NC(=O)[C@@H]2CSSC[C@@H]3NC(=O)[C@](C)([C@@H](C)O)NC(=O)[C@H](CCC(=O)O)NC(=O)CNC(=O)[C@@H]4CSSC[C@H](NC(=O)CNC(=O)[C@@H]5CCCN5C(=O)[C@H]([C@@H](C)O)NC(=O)[C@H](CC(N)=O)NC(=O)[C@H](CSSC[C@H](NC1=O)C(=O)N[C@@H]([C@@H](C)O)C(=O)N[C@@H](CCCNC(=N)N)C(=O)N[C@@H](CC(=O)O)C(=O)NCC(=O)N[C@@H](CC(C)C)C(=O)N1CCC[C@H]1C(=O)N[C@@H](C(C)C)C(=O)N4)NC(=O)[C@H]([C@@H](C)O)NC(=O)CNC(=O)CNC(=O)[C@H](Cc1ccccc1)NC3=O)C(=O)N[C@@H](CO)C(=O)N2
Activity (Helicoverpa armigera): Active

CC(C)C[C@@H]1NC(=O)CNC(=O)[C@H](CC(N)=O)NC(=O)[C@H](CCCNC(=N)N)NC(=O)[C@H]([C@@H](C)O)NC(=O)[C@H](CS)NC(=O)[C@H](C(C)C)NC(=O)[C@@H]2CCCN2C(=O)[C@H](CCC(=O)O)NC(=O)[C@H](CO)NC(=O)[C@H](CS)NC(=O)[C@H]([C@@H](C)O)NC(=O)[C@H](CS)NC(=O)CNC(=O)[C@@H]2CCCN2C(=O)[C@H]([C@@H](C)O)NC(=O)[C@H](CC(N)=O)NC(=O)[C@H](CS)NC(=O)[C@H]([C@@H](C)O)NC(=O)CNC(=O)CNC(=O)[C@H](C(C)C)NC(=O)[C@H](CS)NC(=O)[C@H]([C@@H](C)O)NC(=O)[C@H](CCC(=O)O)NC(=O)CNC(=O)[C@H](CS)NC(=O)[C@H](C(C)C)NC(=O)[C@@H]2CCCN2C1=O [KALATA B1]
Activity (Helicoverpa punctigera): Active

CC(C)C[C@@H]1NC(=O)CNC(=O)[C@H](CC(N)=O)NC(=O)[C@H](C)NC(=O)[C@H]([C@@H](C)O)NC(=O)[C@@H]2CSSC[C@@H]3NC(=O)[C@H]([C@@H](C)O)NC(=O)CNC(=O)CNC(=O)[C@H](C(C)C)NC(=O)[C@@H]4CSSC[C@H](NC(=O)[C@H](CO)NC(=O)[C@H](CSSC[C@H](NC(=O)[C@H](C(C)C)NC(=O)[C@@H]5CCCN5C1=O)C(=O)NCC(=O)N[C@@H](CCC(=O)O)C(=O)N[C@@H]([C@@H](C)O)C(=O)N4)NC(=O)CNC(=O)[C@@H]1CCCN1C(=O)[C@H]([C@@H](C)O)NC(=O)[C@H](CC(N)=O)NC3=O)C(=O)N[C@@H](CO)C(=O)N[C@@H](CCCNC(=N)N)C(=O)N1CCC[C@H]1C(=O)N[C@@H](C(C)C)C(=O)N2 [VIOLAPEPTIDE 1]
HC50 [1]: 50 µM

CC(C)C[C@@H]1NC(=O)CNC(=O)[C@H](CC(N)=O)NC(=O)[C@H](CCCNC(=N)N)NC(=O)[C@H]([C@@H](C)O)NC(=O)[C@@H]2CSSC[C@@H]3NC(=O)[C@H]([C@@H](C)O)NC(=O)CNC(=O)CNC(=O)[C@H](C(C)C)NC(=O)[C@@H]4CSSC[C@H](NC(=O)[C@H](CO)NC(=O)[C@H](CSSC[C@H](NC(=O)[C@H](C(C)C)NC(=O)[C@@H]5CCCN5C1=O)C(=O)NCC(=O)N[C@@H](CCC(=O)O)C(=O)N[C@@H]([C@@H](C)O)C(=O)N4)NC(=O)CNC(=O)[C@@H]1CCCN1C(=O)[C@H]([C@@H](C)O)NC(=O)[C@H](CC(N)=O)NC3=O)C(=O)N[C@@H](CO)C(=O)N[C@@H](Cc1c[nH]c3ccccc13)C(=O)N1CCC[C@H]1C(=O)N[C@@H](C(C)C)C(=O)N2
HC50 [1]: 50 µM | IC50 [2]: 2730 nM | IC50 (R1): 2730 nM | IC50 [3]: 2730 nM | IC50 [4]: 2730 nM | IC50 (CCRF-CEM): 2730 nM | IC50 (ACHN): 2730 nM | IC50 (U-937): 2730 nM | IC50 (U-937/GTB): 2730 nM | IC50 (RPMI-8226): 2730 nM

CC[C@H](C)[C@@H]1NC(=O)[C@H](C)NC(=O)[C@H](C)NC(=O)[C@H](CO)NC(=O)[C@H]([C@@H](C)CC)NC(=O)[C@@H]2CSSC[C@@H]3NC(=O)[C@H](C(C)C)NC(=O)[C@H](CCCCN)NC(=O)[C@H](CO)NC(=O)[C@H](CCCCN)NC(=O)[C@@H]4CSSC[C@H](NC(=O)[C@H](CO)NC(=O)[C@H](CCC(=O)O)NC(=O)CNC(=O)[C@H](CSSC[C@H](NC(=O)CNC1=O)C(=O)N[C@@H](CO)C(=O)N4)NC(=O)[C@@H]1CCCN1C(=O)[C@H]([C@@H](C)CC)NC(=O)CNC(=O)[C@H](CC(N)=O)NC(=O)[C@H](CCCNC(=N)N)NC(=O)[C@H](Cc1ccc(O)cc1)NC3=O)C(=O)N[C@@H](C(C)C)C(=O)N[C@@H](Cc1c[nH]c3ccccc13)C(=O)N[C@@H]([C@@H](C)CC)C(=O)N1CCC[C@H]1C(=O)N2 [CYCLOVIOLACIN O13] (cyclo(AAIGCSCKSKVCYRNGIPCGESCVWIPCIS); disulfide 5-19, 7-23, 12-28)
IC50 [5]: 11000 nM

CC(C)C[C@@H]1NC(=O)[C@H](CC(C)C)NC(=O)[C@@H]2CSSC[C@@H]3NC(=O)[C@H]([C@@H](C)O)NC(=O)[C@@H]4CSSC[C@H](NC(=O)[C@H](CC(N)=O)NC(=O)[C@H](CC(C)C)NC(=O)[C@H](C(C)C)NC(=O)[C@H](CO)NC(=O)CNC(=O)[C@H](CC(=O)O)NC(=O)[C@H](CCCCN)NC(=O)[C@H]([C@@H](C)O)NC(=O)[C@H](CSSC[C@H](NC(=O)[C@H]([C@@H](C)O)NC(=O)CNC1=O)C(=O)N[C@@H](Cc1ccc(O)cc1)C(=O)N[C@@H]([C@@H](C)O)C(=O)N[C@@H]([C@@H](C)O)C(=O)NCC(=O)N4)NC(=O)[C@H](C(C)C)NC(=O)[C@H](CCCNC(=N)N)NC(=O)[C@H](Cc1ccc(O)cc1)NC(=O)[C@H](CCCCN)NC(=O)[C@H](CC(N)=O)NC3=O)C(=O)NCC(=O)N[C@@H](CCC(=O)O)C(=O)N[C@@H]([C@@H](C)O)C(=O)N2 [KALATA B8] (cyclo(CGETCLLGTCYTTGCTCNKYRVCTKDGSVLN); disulfide 1-15, 5-17, 10-23)
EC50 [6]: 2500 nM | IC50 (CEM-SS (Homo sapiens)): 3500 nM

CC(C)C[C@@H]1NC(=O)CNC(=O)[C@H](CC(N)=O)NC(=O)[C@H](Cc2cnc[nH]2)NC(=O)[C@H]([C@@H](C)O)NC(=O)[C@@H]2CSSC[C@@H]3NC(=O)[C@H]([C@@H](C)O)NC(=O)CNC(=O)CNC(=O)[C@H](Cc4ccccc4)NC(=O)[C@@H]4CSSC[C@H](NC(=O)[C@H]([C@@H](C)O)NC(=O)[C@H](CSSC[C@H](NC(=O)[C@H]([C@@H](C)O)NC(=O)[C@@H]5CCCN5C1=O)C(=O)NCC(=O)N[C@@H](CCC(=O)O)C(=O)N[C@@H]([C@@H](C)O)C(=O)N4)NC(=O)CNC(=O)[C@@H]1CCCN1C(=O)[C@H]([C@@H](C)O)NC(=O)[C@H](CC(N)=O)NC3=O)C(=O)N[C@@H](CC(=O)O)C(=O)N1CCC[C@H]1C(=O)N[C@@H](Cc1c[nH]c3ccccc13)C(=O)N1CCC[C@H]1C(=O)N[C@@H](C(C)C)C(=O)N2 [CYCLOVIOLACIN O24] (cyclo(CDPWPVCTHNGLPTCGETCFGGTCNTPGCT); disulfide 1-19, 7-24, 15-29)
Activity [7]: 25 µM

Reference: ChEMBL document CHEMBL1799917, “Isolation, sequencing, and structure-activity relationships of cyclotides” (J Nat Prod, 2010)
